For test [1], the target named is T1, PI3Kα (Homo sapiens, UniProt P42336).
T1 construct: His
The test can be described thus: PI3K Alpha Leadseeker SPA Assay. The format is biochemical. To be noted: His-p110/p85 PI3K alpha, P33-ATP, PEI-PS Leadseeker beads; read-out: IC50 against PI3Kα. The protocol: PI3K Alpha Leadseeker SPA Assay
Compounds of the present invention were tested according to the following assays and found as inhibitors of PI3 kinases, particularly PI3Kα. The activities (IC50) range from 1 nM to 500 μM against PI3Kα.
SPA imaging beads are microspheres containing scintillant which emit light in the red region of the visible spectrum. As a result, these beads are ideally suited to use with a CCD imager such as the Viewlux. The Leadseeker beads used in this system are polystyrene beads that have been coupled with polyethyleneimine. When added to the assay mixture, the beads absorb both the substrate (PIP2) and product (PIP3). Adsorbed P^33-PIP3 will cause an increase in signal, measured as ADUs (analog to digital units). This protocol details the use of the PEI-PS Leadseeker beads for assays using His-p110/p85 PI3K alpha.
Solid compounds are typically plated with 0.1 μl of 100% DMSO in all wells (except column 6 and 18) of a 384-well, flat bottom, low volume plate (Greiner 784075). The compounds are serially diluted (3-fold in 100% DMSO) across the plate from column 1 to column 12 and column 13 to column 24 and leave column 6 and 18 containing only DMSO to yield 11 concentrations for each test compound. […] The signal is determined using a Viewlux detector and is then imported into curve fitting software (Activity Base) for construction of concentration response curves. […]

For test [2], the system named is Class I PI3-kinases. The following applies: cited from earlier work.
Test [3] has as its target CK2 protein kinase (Homo sapiens, UniProt P68400). To be noted: cited from earlier work.

This passage reports IC50 results from patent US20090306074A1, “THIAZOLIDINEDIONE DERIVATIVES AS P13 KINASE INHIBITORS” (priority 2006, published 2009).

Molecules are shown by their SMILES. Where two headings read alike, the source gives them in different places.

Broadly, the IC50 is the concentration that gives 50% inhibition.

T1 sequence (P42336 whole entry): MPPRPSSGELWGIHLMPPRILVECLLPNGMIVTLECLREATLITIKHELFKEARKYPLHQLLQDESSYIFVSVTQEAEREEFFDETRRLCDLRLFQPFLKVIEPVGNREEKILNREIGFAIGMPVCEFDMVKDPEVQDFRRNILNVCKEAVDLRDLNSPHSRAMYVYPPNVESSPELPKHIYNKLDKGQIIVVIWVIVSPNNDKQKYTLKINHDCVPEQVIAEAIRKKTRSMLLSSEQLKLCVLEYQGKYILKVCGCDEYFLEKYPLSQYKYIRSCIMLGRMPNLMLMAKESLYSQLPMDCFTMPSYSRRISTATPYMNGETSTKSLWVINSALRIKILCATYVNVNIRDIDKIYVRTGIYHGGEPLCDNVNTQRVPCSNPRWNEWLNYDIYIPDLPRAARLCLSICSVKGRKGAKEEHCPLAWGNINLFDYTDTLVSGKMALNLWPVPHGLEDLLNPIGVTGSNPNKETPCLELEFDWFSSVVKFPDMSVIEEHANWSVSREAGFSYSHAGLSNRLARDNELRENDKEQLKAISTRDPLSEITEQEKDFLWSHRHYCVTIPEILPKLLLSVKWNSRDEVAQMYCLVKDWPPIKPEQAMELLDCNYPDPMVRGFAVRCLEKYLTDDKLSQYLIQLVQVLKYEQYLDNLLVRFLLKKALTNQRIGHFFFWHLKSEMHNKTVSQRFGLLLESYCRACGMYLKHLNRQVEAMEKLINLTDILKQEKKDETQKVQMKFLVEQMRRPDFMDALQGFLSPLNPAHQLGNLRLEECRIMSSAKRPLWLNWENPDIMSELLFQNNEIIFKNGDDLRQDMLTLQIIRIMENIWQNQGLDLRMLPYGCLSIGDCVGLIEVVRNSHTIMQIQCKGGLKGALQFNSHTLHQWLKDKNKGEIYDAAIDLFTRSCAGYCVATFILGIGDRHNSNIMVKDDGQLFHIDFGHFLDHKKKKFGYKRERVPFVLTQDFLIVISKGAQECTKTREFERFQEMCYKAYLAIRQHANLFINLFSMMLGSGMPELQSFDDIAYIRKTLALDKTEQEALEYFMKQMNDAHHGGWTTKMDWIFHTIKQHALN
T1 sequence (P27986 whole entry partner): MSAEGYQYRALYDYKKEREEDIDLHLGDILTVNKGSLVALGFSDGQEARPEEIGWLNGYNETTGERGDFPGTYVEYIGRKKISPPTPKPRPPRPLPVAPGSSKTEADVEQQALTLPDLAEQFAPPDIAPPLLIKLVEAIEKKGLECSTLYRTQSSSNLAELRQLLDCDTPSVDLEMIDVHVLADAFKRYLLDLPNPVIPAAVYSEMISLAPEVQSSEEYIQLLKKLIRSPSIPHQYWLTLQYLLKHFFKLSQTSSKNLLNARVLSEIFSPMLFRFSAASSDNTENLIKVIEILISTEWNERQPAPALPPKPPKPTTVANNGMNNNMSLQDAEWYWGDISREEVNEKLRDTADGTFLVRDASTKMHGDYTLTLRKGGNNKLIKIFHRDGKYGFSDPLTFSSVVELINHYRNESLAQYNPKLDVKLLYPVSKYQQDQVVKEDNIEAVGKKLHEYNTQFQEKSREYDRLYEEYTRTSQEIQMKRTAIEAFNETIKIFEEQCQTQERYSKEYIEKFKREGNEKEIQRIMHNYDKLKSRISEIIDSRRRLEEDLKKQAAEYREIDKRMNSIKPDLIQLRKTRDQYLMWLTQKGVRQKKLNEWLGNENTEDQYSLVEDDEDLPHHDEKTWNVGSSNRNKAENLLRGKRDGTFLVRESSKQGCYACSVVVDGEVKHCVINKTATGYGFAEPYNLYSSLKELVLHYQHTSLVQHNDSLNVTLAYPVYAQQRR
Sequence of CK2 protein kinase (P68400 whole entry): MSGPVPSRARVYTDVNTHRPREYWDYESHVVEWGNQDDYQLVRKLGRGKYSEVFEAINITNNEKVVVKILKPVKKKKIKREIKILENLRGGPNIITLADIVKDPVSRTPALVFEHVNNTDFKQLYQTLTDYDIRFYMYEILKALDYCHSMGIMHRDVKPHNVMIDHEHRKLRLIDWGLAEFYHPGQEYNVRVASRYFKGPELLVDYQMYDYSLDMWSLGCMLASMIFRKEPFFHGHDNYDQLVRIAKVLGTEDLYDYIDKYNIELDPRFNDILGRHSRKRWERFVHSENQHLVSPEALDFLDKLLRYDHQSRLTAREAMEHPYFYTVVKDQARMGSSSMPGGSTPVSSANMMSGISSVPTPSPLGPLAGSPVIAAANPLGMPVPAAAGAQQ

As to `O=C1NC(=O)/C(=C/c2ccc3nccc(-c4ccncc4)c3c2)S1` [Example 1, (5Z)-5-{[4-(4-pyridinyl)-6-quinolinyl]methylidene}-1,3-thiazolidine-2,4-dione], the IC50 in test [1] is 1 nM. Take `O=c1cc(N2CCOCC2)oc2c(-c3ccccc3)cccc12` [LY294002]: the half-inhibitory concentration (IC50) was 15000 to 20000 nM in test [2] (read-out: IC50 values against each of these PI3-kinases) and 5000 to 10000 nM in test [3]. As to `COC[C@H]1OC(=O)c2coc3c2[C@@]1(C)C1=C(C3=O)[C@@H]2CCC(=O)[C@@]2(C)C[C@H]1OC(C)=O` [wortmannin], the half-maximal inhibitory concentration (IC50) in test [2] (read-out: IC50 values against each of the various Class I PI3-kinases) is 1 to 10 nM.
